Our source for the efficacy and IC50 cell viability values is the supplement of paper PMC12137928.

Counter-ions that a name gives are not always drawn.

Test [1] relates to HCT116. The test can be described thus: efficacy (maximum % inhibition of viability vs DMSO); higher = more cytotoxic. The settings on record: 72 h. An outline of the steps: (§1)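 Luminescence was read with CellTiter-Glo in HCT116 cells seeded at 250 per well in 1536-well plates. Signals were scaled between vehicle at 0% and positive control at -100%, then pattern-corrected. IC50 and maximal efficacy were obtained by fitting a four-parameter Hill equation.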

The subject of test [2] is HCT116. The settings on record: 72 h. An outline of the steps: as §1

Consider `C#C[C@]1(O)CC[C@H]2[C@@H]3CCC4=Cc5oncc5C[C@]4(C)[C@H]3CC[C@@]21C` [Danazol], for which, in the test on HCT116 [1] (ICRF193 200 nM), the efficacy turned out to be 47.9%. Further, the IC50 cell viability is above 45.8 µM in the test with HCT116 [2] (ICRF193 0 nM) and 20.6 µM in the test on HCT116 [2] (ICRF193 200 nM).
As to `O=C(CCCN1CCC(O)(c2ccc(Br)cc2)CC1)c1ccc(F)cc1` [Bromperidol], the efficacy was 44.8% in the test on HCT116 [1] (ICRF193 0 nM) and 55.1% with HCT116 [1] (ICRF193 200 nM). In addition, the IC50 cell viability in the test on HCT116 [2] (ICRF193 0 nM) was 18.3 µM; in the test with HCT116 [2] (ICRF193 200 nM), 20.6 µM.
As to `CO/N=C1\C[C@]2(C[C@@H]3C[C@@H](C/C=C(\C)C[C@@H](C)/C=C/C=C4\CO[C@@H]5[C@H](O)C(C)=C[C@@H](C(=O)O3)[C@]45O)O2)O[C@H](/C(C)=C/C(C)C)[C@H]1C` [Moxidectin], the efficacy in the test on HCT116 [1] (ICRF193 0 nM) came to 128%; with HCT116 [1] (ICRF193 200 nM) it was 111%. The IC50 cell viability in the test with HCT116 [2] (ICRF193 0 nM) turned out to be 20.6 µM; in the test on HCT116 [2] (ICRF193 200 nM) it was 16.4 µM.
On to `N[C@@H]1[C@H]2CN(c3nc4c(cc3F)c(=O)c(C(=O)O)cn4-c3ccc(F)cc3F)C[C@@H]12` [Trovafloxacin mesylate], for which the efficacy in the test on HCT116 [1] (ICRF193 0 nM) is 52.4%; with HCT116 [1] (ICRF193 200 nM), 65.3%. The values for the IC50 cell viability in the test on HCT116 [2] (ICRF193 0 nM) and in the test with HCT116 [2] (ICRF193 200 nM) were 29.1 µM and 20.6 µM, respectively.
Take `CN1CCCC(n2nc(Cc3ccc(Cl)cc3)c3ccccc3c2=O)CC1` (stereo unspecified) [Azelastine hydrochloride]: the efficacy with HCT116 [1] (ICRF193 200 nM) was determined as 65.4%. For the same molecule, the figures for the IC50 cell viability in the test with HCT116 [2] (ICRF193 0 nM) and with HCT116 [2] (ICRF193 200 nM) were above 45.8 µM and 29.1 µM, respectively.
`Nc1nc(Cl)nc2c1ncn2[C@H]1C[C@H](O)[C@@H](CO)O1` [Cladribine]: the efficacy with HCT116 [1] (ICRF193 0 nM) turned out to be 56.1%; in the test with HCT116 [1] (ICRF193 200 nM) it was 66.1%. For the same molecule, the IC50 cell viability in the test with HCT116 [2] (ICRF193 0 nM) was determined as 1.3 µM; with HCT116 [2] (ICRF193 200 nM), 0.651 µM.
On to `NC(=O)N1c2ccccc2CC(=O)c2ccccc21` [Oxcarbazepine], for which the efficacy in the test with HCT116 [1] (ICRF193 0 nM) was 52.3%. Besides, the IC50 cell viability in the test on HCT116 [2] (ICRF193 0 nM) was 18.3 µM; in the test with HCT116 [2] (ICRF193 200 nM) it was above 45.8 µM.
For `Cc1ccc(Nc2nccc(N(C)c3ccc4c(C)n(C)nc4c3)n2)cc1S(N)(=O)=O` [Pazopanib], in that order: 56.3%, 18.3 µM and above 45.8 µM.
On to `Cc1cc(C2CCCCC2)n(O)c(=O)c1` [Ciclopirox], for which the efficacy in the test with HCT116 [1] (ICRF193 0 nM) stood at 107%; with HCT116 [1] (ICRF193 200 nM), 98.9%. The figures for the IC50 cell viability in the test with HCT116 [2] (ICRF193 0 nM) and in the test with HCT116 [2] (ICRF193 200 nM) were 11.6 µM and 13 µM, respectively.
In the test on HCT116 [1] (ICRF193 200 nM), `O=C(O)c1cccc(-c2noc(-c3ccccc3F)n2)c1` [PTC-124] yielded an efficacy of 46.5%. In addition, the IC50 cell viability was above 45.8 µM in the test on HCT116 [2] (ICRF193 0 nM) and 10.3 µM with HCT116 [2] (ICRF193 200 nM).
Taken in the same sequence, the figures for `CC(CN1c2ccccc2Sc2ccccc21)N(C)C` (stereo unspecified) [Promethazine] were 45.3%, above 45.8 µM and 29.1 µM.
As for `CC[C@@H](C(=O)[C@@H](C)[C@@H](O)[C@H](C)[C@@H]1O[C@@H]([C@@H](CC)C(=O)O)CC[C@@H]1C)[C@H]1O[C@]2(C=C[C@@H](O)[C@]3(CC[C@@](C)([C@H]4CC[C@](O)(CC)[C@H](C)O4)O3)O2)[C@H](C)C[C@@H]1C` [SALINOMYCIN, SODIUM], the efficacy in the test with HCT116 [1] (ICRF193 0 nM) amounted to 104%; in the test with HCT116 [1] (ICRF193 200 nM), 100%. Besides, the IC50 cell viability in the test with HCT116 [2] (ICRF193 0 nM) came out at 2.31 µM; with HCT116 [2] (ICRF193 200 nM), 1.3 µM.
Taken in the same sequence, the figures for `CC(C)OC(=O)CCC/C=C\C[C@@H]1[C@@H](/C=C/[C@@H](O)COc2cccc(C(F)(F)F)c2)[C@H](O)C[C@@H]1O` [Travoprost] were 87.4%, 96.5%, 14.6 µM and 20.6 µM.
`CN(C)CCCN1c2ccccc2Sc2ccccc21` [Promazine hydrochloride] came in with an efficacy in the test on HCT116 [1] (ICRF193 200 nM) of 46.3%. Also, the IC50 cell viability in the test with HCT116 [2] (ICRF193 0 nM) was above 45.8 µM; with HCT116 [2] (ICRF193 200 nM), 20.6 µM.
For `O=C(N[C@H]1CCS[C@H]2CCC[C@@H](C(=O)O)N2C1=O)[C@@H](S)Cc1ccccc1` [Omapatrilat], in that order: 86.5%, above 45.8 µM and 6.51 µM.
Consider `CCC(C)C1O[C@]2(C=C[C@@H]1C)C[C@@H]1CC(C/C=C(\C)[C@@H](OC3C[C@H](OC)[C@@H](OC4C[C@H](OC)[C@@H](O)[C@H](C)O4)[C@H](C)O3)[C@@H](C)/C=C/C=C3\COC4[C@H](O)C(C)=CC(C(=O)O1)[C@]34O)O2` (stereo partly specified) [Avermectin B1a], for which the efficacy in the test on HCT116 [1] (ICRF193 0 nM) is 92.3%. In addition, the IC50 cell viability is 8.2 µM in the test with HCT116 [2] (ICRF193 0 nM) and above 45.8 µM in the test with HCT116 [2] (ICRF193 200 nM).
Regarding `N=C(NCCCCCCNC(=N)NC(=N)Nc1ccc(Cl)cc1)NC(=N)Nc1ccc(Cl)cc1` [Chlorhexidine], the efficacy in the test on HCT116 [1] (ICRF193 0 nM) stood at 104%; in the test on HCT116 [1] (ICRF193 200 nM), 103%. In addition, the IC50 cell viability with HCT116 [2] (ICRF193 0 nM) and in the test with HCT116 [2] (ICRF193 200 nM) was 18.3 µM throughout.
With `COc1cc2nc(N3CCN(C(=O)c4ccco4)CC3)nc(N)c2cc1OC` [Prazosin], in the test on HCT116 [1] (ICRF193 200 nM), the efficacy was found to be 42.5%. The IC50 cell viability in the test with HCT116 [2] (ICRF193 0 nM) is above 45.8 µM; with HCT116 [2] (ICRF193 200 nM), 7.99 µM.
`C=C[C@@H]1C[C@]1(NC(=O)[C@@H]1C[C@@H](Oc2ncc(OC)c3ccc(Cl)cc23)CN1C(=O)[C@@H](NC(=O)OC(C)(C)C)C(C)(C)C)C(=O)NS(=O)(=O)C1CC1`: the efficacy was 92.8% in the test with HCT116 [1] (ICRF193 0 nM) and 92.4% in the test with HCT116 [1] (ICRF193 200 nM). The IC50 cell viability with HCT116 [2] (ICRF193 0 nM) and with HCT116 [2] (ICRF193 200 nM) was 20.6 µM in each case.
Consider `NC(=O)C1(N2CCCCC2)CCN(CCCN2c3ccccc3CCc3ccccc32)CC1` [Carpipramine Dihydrochloride], for which the efficacy with HCT116 [1] (ICRF193 0 nM) was 115%; with HCT116 [1] (ICRF193 200 nM), 100%. The IC50 cell viability with HCT116 [2] (ICRF193 0 nM) is 23.1 µM; in the test with HCT116 [2] (ICRF193 200 nM), 20.6 µM.
Consider `C[C@]12CC[C@H]3[C@@H](CCC4=CC(=O)CC[C@@H]43)[C@@H]1CC[C@@H]2OC(=O)CCc1ccco1` [Nandrolone furylpropionate], for which the efficacy amounted to 93.3% in the test with HCT116 [1] (ICRF193 0 nM) and 88% in the test on HCT116 [1] (ICRF193 200 nM). Further, the IC50 cell viability in the test on HCT116 [2] (ICRF193 0 nM) and with HCT116 [2] (ICRF193 200 nM) was 29.1 µM throughout.
As to `CO[C@H]1/C=C/O[C@@]2(C)Oc3c(C)c(O)c4c(O)c(c(/C=N/N5CCN(C)CC5)c(O)c4c3C2=O)NC(=O)/C(C)=C\C=C\[C@H](C)[C@H](O)[C@@H](C)[C@@H](O)[C@@H](C)[C@H](OC(C)=O)[C@@H]1C` [Rifampicin], the efficacy with HCT116 [1] (ICRF193 0 nM) amounted to 44.2%; in the test with HCT116 [1] (ICRF193 200 nM), 44.1%. The IC50 cell viability with HCT116 [2] (ICRF193 0 nM) and in the test with HCT116 [2] (ICRF193 200 nM) was 29.1 µM in each case.
Regarding `CC(=O)Oc1ccccc1C(=O)Nc1ncc([N+](=O)[O-])s1` [Nitazoxanide], the efficacy in the test with HCT116 [1] (ICRF193 0 nM) is 104%; in the test with HCT116 [1] (ICRF193 200 nM) it was 122%. Moreover, the IC50 cell viability in the test with HCT116 [2] (ICRF193 0 nM) was found to be 13 µM; in the test with HCT116 [2] (ICRF193 200 nM), 18.3 µM.
Take `CCCC(=O)OC[C@@H](OC(=O)CCC)[C@@H](OC(=O)CCC)[C@H](Cn1c2nc(=O)[nH]c(=O)c-2nc2cc(C)c(C)cc21)OC(=O)CCC` [Riboflavin tetrabutyrate]: the efficacy came to 64.5% with HCT116 [1] (ICRF193 0 nM) and 82.1% in the test with HCT116 [1] (ICRF193 200 nM). The IC50 cell viability with HCT116 [2] (ICRF193 0 nM) turned out to be 29.1 µM; in the test with HCT116 [2] (ICRF193 200 nM), 18.3 µM.
